Data as given in patent US20260070917A1, “CYCLIN DEPENDENT KINASE DEGRADERS AND METHODS OF USE THEREOF” (Differentiated Therapeutics Inc, priority 2023, published 2026).
Like-named read-outs stand apart in the source and are kept apart here.

Tests used:
Type in all cases: cell-based
CDK2 = target: T1, CDK2 (Homo sapiens, UniProt P24941); experiment: HiBit Assay Protocol for CDK2 (HIBIT protein quantification, degradation); details: HEK293-CDK2-Hibit cells, compound treatment for 6 hours; for DC50: ABS DC50
T1 construct: host or cells: HEK293-CDK2-Hibit
Description: HiBit Assay Protocol for CDK2
• 1. The culture medium for HEK293-CDK2-Hibit cells was prepared using DMEM with 10% FBS. • 2. Cells were cultivated in T-75 flasks in a cell culture incubator set at 37° C., 5% CO2, 95% relative humidity. Cells were allowed to reach 80-90% confluence before detaching and splitting. • 3. Cultivated cells were rinsed in T-75 flasks with 5 mL PBS. Aspirate off Added was 1.5 mL trypsin, and the cells were incubated at 37° C. for approximately 5 minutes or until the cells detached and floated. • 4. Trypsin was inactivated by adding excess serum containing medium. • 5. Cells were harvested from flask into cell culture medium and then the cell number was counted. HEK293-CDK2-Hibit cells were seeded into 384-well plate (cell density: 1.6×10^5 cells/well/50 uL medium) in DMEM medium according to the plate map below and incubated overnight at 37° C. and 5% CO2. • Note: Cell Cultured Medium: 90% DMEM+10% FBS+1% Penicillin-Streptomycin Liquid
(§1) • 1. Test compounds were dissolved at 10 mM DMS stock solution. 45 uL of stock solution was transferred to a 384 pp-plate. A 3-fold, 10-point dilution was performed via transferring 15 uL compound into 30 uL DMSO by using TECAN liquid handler. • 2. The plates were spinned at room temperature at 1,000 RPM for 1 minute. • 3. 50 nL of diluted compound was transferred from compound source plate into the cell plate by Echo. • 4. After compound treatment for 6 hours, the plate was removed from incubators and equilibrated at room temperature for 15 minutes. The HiBit reagent was prepared, consisting of the following ratios: 10 mL of Nano-Glo®-HiBiT Lytic Buffer, 200 μL of Nano-Glo®-HiBiT Lytic Substrate and 100 uL of LgBiT Protein, mixed thoroughly. 20 μL of HiBit reagent was added into each well and the plates were spinned at room temperature at 1,000 RPM for 1 minute to be detected. Then the plates were shaken at 600 RPM at room temperature for 20 minutes, and read by EnVision. • 5. The inhibition activity was calculated following the formula below:
(§2) [formula] • Note: Where HC is obtained from cells treated with […] only; LC is obtained from culture medium only. • 6. ABS DC50 was calculated by fitting the Curve using Xlfit (v5.3.1.3), equation 201: […]

CDK9 = target: T2, CDK9 (Homo sapiens, UniProt P50750); experiment: HiBit Assay Protocol for CDK9 (HIBIT protein quantification, degradation); details: HEK293-CDK9-Hibit cells, compound treatment for 6 hours; for Dmax: read-out: CDK9 HIBIT Protein Quantification Maximum
T2 construct: host or cells: HEK293-CDK9-Hibit
Description: HiBit Assay Protocol for CDK9
• 1. The culture medium for HEK293-CDK9-Hibit cell was prepared using DMEM with 10% FBS. • 2. Cells were cultivated in T-75 flasks in a cell culture incubator set at 37° C., 5% CO2, 95% relative humidity. Cells were allowed to reach 80-90% confluence before detaching and splitting. • 3. Cultivated cells were rinsed in T-75 flasks with 5 mL PBS. Aspirated off. Added 1.5 mL trypsin, and incubated the cells at 37° C. for approximately 5 minutes or until the cells detached and floated. • 4. Trypsin was inactivated by adding excess serum containing medium. • 5. Cells were harvested from flask into cell culture medium and then the cell number was counted. HEK293-CDK9-Hibit cells were seeded into 384-well plate (cell density: 1.6×10^5 cells/well/50 uL medium) in DMEM medium according to the plate map below and were incubated overnight at 37° C. and 5% CO2. • Note: Cell Cultured Medium: 90% DMEM+10% FBS+1% Penicillin-Streptomycin Liquid
• 1. Test compounds were dissolved at 3 mM DMSO stock solution. Transferred 45 uL of stock solution to a 384 pp-plate. Perform 3-fold, 10-point dilution via transferring 15 uL compound into 30 uL DMSO by using TECAN liquid handler. • 2. The plates were spinned at room temperature at 1,000 RPM for 1 minute. • 3. Transferred 50 nL of diluted compound from compound source plate into the cell plate by Echo. • 4. After compound treatment for 6 hours, removed the plate from incubators and equilibrated at room temperature for 15 minutes. Prepared the HiBit reagent consists of the following ratios: 10 mL of Nano-Glo®-HiBiT Lytic Buffer, 200 uL of Nano-Glo®-HiBiT Lytic Substrate and 100 uL of LgBiT Protein, mixed thoroughly. Added 20 uL of HiBit reagent into each well and spinned the plates at room temperature at 1,000 RPM for 1 minute to be detected. Plates were then shaken at 600 RPM at room temperature for 20 minutes, and read by EnVision. • 5. The inhibition activity was calculated following the formula below:
[formula] • Note: Where HC was obtained from cells treated with 0.1% DMSO only; LC was obtained from culture medium only. • 6. The ABS DC50 was calculated by fitting the Curve using Xlfit (v5.3.1.3), equation 201: […]

CCNE1 = target: T3, CCNE1 (Homo sapiens, UniProt P24864); experiment: HiBit Assay Protocol for CCNE1 (HIBIT protein quantification, degradation); details: HEK293-CCNE1-Hibit cells, compound treatment for 6 hours
T3 construct: host or cells: HEK293-CCNE1-Hibit
Description: HiBit Assay Protocol for CCNE1
• 1. The culture medium for HEK293-CCNE1-Hibit cell was prepared using EMEM with […]. • 2. Cells were cultivated in T-75 flasks in a cell culture incubator set at 37° C., 5% CO2, 95% relative humidity. Cells were allowed to reach 80-90% confluence before detaching and splitting. • 3. Cultivated cells were rinsed in T-75 flasks with 5 mL PBS. Aspirate off Added was 1.5 mL trypsin, and the cells were incubated at 37° C. for approximately 5 minutes or until the cells detached and floated. • 4. Trypsin was inactivated by adding excess serum containing medium. • 5. Cells were harvested from flask into cell culture medium and then the cell number was counted. HEK293-CCNE1-Hibit cell were seeded into 384-well plate (cell density: 1.6×10^5 cells/well/50 uL medium) in EMEM medium according to the plate map below and incubated overnight at 37° C. and […]. • Note: Cell Cultured Medium: 90% EMEM+10% FBS+1% Penicillin-Streptomycin Liquid
as §1, with “mM DMSO” for “mM DMS”, “45 μL” for “45 uL”, “100 μL” for “100 uL”, “Protein, mix” for “Protein, mixed”
as §2

T3 sequence (P24864 whole entry): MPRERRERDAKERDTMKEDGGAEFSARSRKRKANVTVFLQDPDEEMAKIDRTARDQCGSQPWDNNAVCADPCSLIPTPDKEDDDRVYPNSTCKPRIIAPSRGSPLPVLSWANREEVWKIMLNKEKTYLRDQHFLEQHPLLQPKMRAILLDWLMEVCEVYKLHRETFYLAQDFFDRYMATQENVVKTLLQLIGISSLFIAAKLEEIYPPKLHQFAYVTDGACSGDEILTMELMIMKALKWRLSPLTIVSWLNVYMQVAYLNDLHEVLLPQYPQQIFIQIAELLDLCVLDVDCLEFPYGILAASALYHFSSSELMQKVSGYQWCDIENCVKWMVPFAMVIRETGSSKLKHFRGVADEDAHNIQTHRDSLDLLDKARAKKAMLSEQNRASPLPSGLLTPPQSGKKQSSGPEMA
T2 sequence (P50750 whole entry): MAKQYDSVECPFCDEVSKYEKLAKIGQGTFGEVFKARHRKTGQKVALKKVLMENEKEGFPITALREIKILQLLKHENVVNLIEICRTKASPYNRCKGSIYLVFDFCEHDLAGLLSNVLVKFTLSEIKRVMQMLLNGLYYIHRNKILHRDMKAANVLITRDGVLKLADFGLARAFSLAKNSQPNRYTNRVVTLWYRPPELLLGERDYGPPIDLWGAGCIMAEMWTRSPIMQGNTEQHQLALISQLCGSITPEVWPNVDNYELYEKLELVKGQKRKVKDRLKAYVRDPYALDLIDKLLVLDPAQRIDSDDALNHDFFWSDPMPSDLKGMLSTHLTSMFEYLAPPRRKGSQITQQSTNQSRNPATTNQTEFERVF

Structure (SMILES) | CDK2 HIBIT Protein Quantification Maximum (CDK2) | DC50 (CDK2) | Dmax (CDK9; 6 h) | CCNE1 HIBIT Protein Quantification Maximum (CCNE1) | DC50 (CDK9; ABS DC50) | Dmax (CDK9)
CC1CCCC1N1C(=O)C2(CC2)c2cnc(NC3CCN(S(=O)(=O)C4CCN(C(=O)CCCCCCCc5ccc6c(c5)n(C)c(=O)n6C5CCC(=O)NC5=O)C4)CC3)nc21 (stereo not drawn) [Compound 84] | 53% | 21 nM | 30% | 47% | – | –
CC1CCCC1N1C(=O)C2(CC2)c2cnc(NC3CCN(S(=O)(=O)N4CC5(CCCN(C(=O)CCCCCCCCCc6ccc7c(c6)n(C)c(=O)n7C6CCC(=O)NC6=O)C5)C4)CC3)nc21 (stereo not drawn) [Compound 87] | 44% | – | 13% | 11% | – | –
CC1CCCC1N1C(=O)C2(CC2)c2cnc(NC3CCN(S(=O)(=O)N4CCCN(C(=O)CCCc5ccc6c(c5)n(C)c(=O)n6C5CCC(=O)NC5=O)CC4)CC3)nc21 (stereo not drawn) [Compound 72] | 25% | – | 42% | 8% | – | –
CC1CCCC1N1C(=O)C2(CC2)c2cnc(NC3CCN(S(=O)(=O)C4CCCN(C(=O)CCCCc5cccc6c5n(C)c(=O)n6C5CCC(=O)NC5=O)C4)CC3)nc21 (stereo not drawn) [Compound 101] | 38% | – | 23% | 47% | – | –
CC1CCCC1N1C(=O)C2(CC2)c2cnc(NC3CCN(S(=O)(=O)N4CC5(CCCN(C(=O)CCCc6cccc7c6n(C)c(=O)n7C6CCC(=O)NC6=O)C5)C4)CC3)nc21 (stereo not drawn) [Compound 28] | 42% | – | 8% | 8% | – | –
Cn1nc(N2CCC(=O)NC2=O)c2ccc(C3CCN(Cc4cccc(S(=O)(=O)N5CCC(Nc6ncc7c(n6)N(c6cc(F)ccc6Cl)C(=O)C76CC6)CC5)c4)CC3)cc21 [Compound 162, 1-(6-{1-[(3-{4-[7′-(2-Chloro-5-fluorophenyl)-6′-oxospiro[cyclopropane-1,5′-pyrrolo[2,3-d]pyrimidin]-2′-ylamino]piperidin-1-ylsulfonyl}phenyl)methyl]piperidin-4-yl}-1-methylindazol-3-yl)-1,3-diazinane-2,4-dione] | 75% | 8.03 nM | – | 42% | – | 4%
CC1CCCC1N1C(=O)C2(CC2)c2cnc(NC3CCN(S(=O)(=O)N4CC(N(C)C(=O)CCCCc5cccc6c5n(C)c(=O)n6C5CCC(=O)NC5=O)C4)CC3)nc21 (stereo not drawn) [Compound 91] | 64% | 6 nM | 37% | 25% | – | –

Continued, in another order:

CDK2 HIBIT Protein Quantification Maximum (CDK2) | DC50 (CDK2) | Dmax (CDK9; 6 h) | CCNE1 HIBIT Protein Quantification Maximum (CCNE1) | DC50 (CDK9; ABS DC50) | Structure (SMILES) | Dmax (CDK9)
81% | 6.51 nM | 14% | 41% | – | Cn1nc(N2CCC(=O)NC2=O)c2ccc(C3CCN(Cc4cccc(S(=O)(=O)N5CCC(Nc6ncc7c(n6)N([C@@H]6CCC[C@@H](O)C6)C(=O)C76CC6)CC5)c4)CC3(F)F)cc21 (stereo partly drawn) [Compound 177, 1-[6-(3,3-difluoro-1-{[3-(4-{7′-[(1R,3R)-3-hydroxycyclohexyl]-6′-oxospiro[cyclopropane-1,5′-pyrrolo[2,3-d]pyrimidin]-2′-ylamino}piperidin-1-ylsulfonyl)phenyl]methyl}piperidin-4-yl)-1-methylindazol-3-yl]-1,3-diazinane-2,4-dione] | –
26% | – | 51% | 38% | 25.3 nM | Cc1ccc(CN2CCC(c3ccc4c(N5CCC(=O)NC5=O)nn(C)c4c3)CC2)cc1S(=O)(=O)N1CCC(Nc2ncc3c(n2)N([C@@H]2CCC[C@@H](O)C2)C(=O)C32CC2)CC1 [Compound 163, 1-[6-(1-{[3-(4-{7′-[(1R,3R)-3-Hydroxycyclohexyl]-6′-oxospiro [cyclopropane-1,5′-pyrrolo[2,3-d]pyrimidin]-2′-ylamino}piperidin-1-ylsulfonyl)-4-methylphenyl]methyl}piperidin-4-yl)-1-methylindazol-3-yl]-1,3-diazinane-2,4-dione] | –
21% | – | 6% | 28% | – | CC1CCCC1N1C(=O)C2(CC2)c2cnc(NC3CCN(S(=O)(=O)N4CCCN(C(=O)CCCCc5ccc6c(c5)n(C)c(=O)n6C5CCC(=O)NC5=O)CC4)CC3)nc21 (stereo not drawn) [Compound 113] | –
18% | – | 12% | 14% | – | Cn1nc(N2CCC(=O)NC2=O)c2ccc(C3CCN(Cc4cccc(S(=O)(=O)N5CC[C@H](Nc6ncc7c(n6)N([C@@H]6CCC[C@@H](O)C6)C(=O)C76CC6)[C@@H](F)C5)c4)CC3)cc21 [Compound 157] | –
88% | 10.9 nM | 20% | 37% | – | CC(C)[C@H]1CN([C@@H](C)c2cccc(S(=O)(=O)N3CC[C@H](Nc4ncc5c(n4)N([C@@H]4CCC[C@@H](O)C4)C(=O)C54CC4)[C@H](F)C3)c2)CCN1c1ccc2c(N3CCC(=O)NC3=O)nn(C)c2c1 (single isomer, unassigned) [Compound 202] | –
